# Results taken from patent publication US20060020014A1, “Method for treating nervous system disorders and conditions” (Wyeth, priority 2004, published 2006).
# Where “and” joins values, the source holds several entries; their conditions need not be identical. Equal values may be shown once.
# Legend:
# [1] = target: human norepinephrine transporter (hNET) (Homo sapiens, UniProt P23975); assay: cell-based; conditions: hNET function uptake (EC50 in nm), MDCK-Net6 cells, [3H]NE uptake
# Method: Test compounds were prepared in DMSO (10 mM) and diluted in assay buffer according to test range (1 to 10,000 nM). Twenty-five microliters of assay buffer (maximum NE uptake) or test compound were added directly to triplicate wells containing cells in 200 μl of assay buffer. […] To initiate the NE uptake, [^3H]NE diluted in assay buffer (120 nM final assay concentration) was delivered in 25 μl aliquots to each well and the plates were incubated for 5 minutes (37° C.).
# [2] = target: T1, human serotonin transporter (hSERT) (Homo sapiens, UniProt P31645); assay: Serotonin (5-HT) uptake assay in JAR cells (hSERT function uptake); type: cell-based; conditions: [3H]5-HT uptake
# T1 construct: The methods for 5-HT functional reuptake using the JAR cell line were modified using a previous literature report; host or cells: JAR (human placental choriocarcinoma), staurosporine-stimulated
# Method: The methods for 5-HT functional reuptake using the JAR cell line were modified using a previous literature report. […] On day 2, cells were stimulated with staurosporine (40 nM) to increase the expression of the 5-HT transporter. On day 3, cells were removed from the cell incubator two hours prior to assay and maintained at room temperature to equilibrate the growth medium to ambient oxygen concentration. […] Twenty-five microliters of assay buffer (maximum 5-HT uptake) or test compound were added directly to triplicate wells containing cells in 200 μl of assay buffer. The cells were incubated with the compound for 10 minutes (37° C.). […] The cells were incubated with the reaction mixture for 5 minutes at 37° C. The 5-HT uptake reaction was terminated by decanting the assay buffer.
# hNET = hNET (Homo sapiens, UniProt P23975); assay: hNET binding
# hSERT = hSERT (Homo sapiens, UniProt P31645); assay: hSERT binding
# [3] = tested on: OVX rats, tail skin temperature (TST); assay: Telemetry rat model of ovariectomy-induced thermoregulatory dysfunction (tail skin temperature); type: in vivo; conditions: 30 mg/kg sc; for Duration: duration of effect on TST; for Onset: onset of action on TST
# Excerpt: This model has been modified from a previously reported protocol describing estrogen regulation of diurnal tail skin temperature (TST) patterns (Berendsen, et al., European Journal of Pharmacology, 2001, 419(1): 47-54). […] A temperature and physical activity transmitter (PhysioTel TA10TA-F40, Data Sciences International) was implanted subcutaneously in the dorsal scapular region and the tip of the temperature probe was tunneled subcutaneously 2.5 cm beyond the base of the tail. After a 7-day recovery period, TST readings were continuously recorded for the remainder of the study. Tail skin temperature readings were collected from each animal every 5 minutes with values obtained over a 10 second sampling period. The day before test day, an average baseline TST value was calculated for each animal by averaging temperature readings recorded during the 12 hour active (dark) phase. In these studies, animals were dosed approximately 40 minutes prior to the onset of dark cycle.
# Statistical analysis: Evaluation of a compound's ability to restore normal lowering of TST in the telemetry model was analyzed using hourly TST values calculated for each animal by averaging the 12 temperature readings obtained every 5 minutes over that recording time. To analyze ΔTST in the telemetry model, a two factors repeated measure ANOVA was performed. The model used for analysis was ΔTST=GRP (group)+HR (hours)+GRP*HR+BASELINE. Thus, the reported least squares means are the expected mean values as if both groups had the same baseline value. Post-hoc tests of hourly GRP*HR samples are t-tests of the difference between groups for each hour. To be conservative, a result was not considered significant unless the p-value was <0.025. All analyses were performed using SAS PROC MIXED (SAS, Carey, N.C.).
# Rats were injected subcutaneously with vehicle (2%Tween/0.5% methylcellulose) or 30 mg/kg, sc test compound dissolved in 2%Tween/0.5% methylcellulose. The effect of test compound is measured by evaluating the following parameters in this model: onset of action, duration of effect on TST, maximal change in TST and mean change in TST over the duration of the compound effect.
# [4] = tested on: OVX rats, tail skin temperature (TST); assay: as above; type: in vivo; conditions: 30 mg/kg, sc; p<0.05 compared to vehicle control
# [5] = tested on: SNL rats, tactile allodynia; assay: Spinal nerve ligation (SNL) model of neuropathic pain, tactile hypersensitivity (von Frey); type: in vivo, rat; conditions: 30 mg/kg IP, 30-300 minutes after administration
# Excerpt: Subjects. Male Sprague-Dawley rats (Indianapolis, Ind.) weighing 150 to 200 g at time of arrival, were individually housed in wire cages in a climate-controlled room. A 12-hour light/dark cycle (lights on at 0630) was in effect, and food and water were available ad libitum.
# Surgery—Spinal Nerve Ligation. Rats were anesthetized with 3.5% halothane in O2 at 1 L/min and maintained with 1.5% halothane in O2 during surgery. Ligation of the L5 and L6 nerves was produced by an incision through the left paraspinal muscles. The left L5 and L6 spinal nerves were isolated adjacent to the vertebral column and ligated tightly with 6-0 silk suture just distal to the dorsal root ganglion. The wound was closed in layers using 4-0 silk suture and wound clips. Testing began 7 days after surgery.
# Assessment of tactile hypersensitivity. […] Baseline tactile sensitivity was assessed using a series of calibrated von Frey monofilaments (Stoelting; Wood Dale, Ill.) 0 to 3 days before surgery. […] The ability of a single dose of test compound to reverse established hypersensitivity was assessed using a time course procedure. […]
# Results are presented as the 50% threshold values (50% threshold in g force) estimated by the Dixon non-parametric test. […] Significant main effects were analyzed further by subsequent least significant difference analysis. […]
# human norepinephrine transporter (hNET), sequence (P23975 whole entry): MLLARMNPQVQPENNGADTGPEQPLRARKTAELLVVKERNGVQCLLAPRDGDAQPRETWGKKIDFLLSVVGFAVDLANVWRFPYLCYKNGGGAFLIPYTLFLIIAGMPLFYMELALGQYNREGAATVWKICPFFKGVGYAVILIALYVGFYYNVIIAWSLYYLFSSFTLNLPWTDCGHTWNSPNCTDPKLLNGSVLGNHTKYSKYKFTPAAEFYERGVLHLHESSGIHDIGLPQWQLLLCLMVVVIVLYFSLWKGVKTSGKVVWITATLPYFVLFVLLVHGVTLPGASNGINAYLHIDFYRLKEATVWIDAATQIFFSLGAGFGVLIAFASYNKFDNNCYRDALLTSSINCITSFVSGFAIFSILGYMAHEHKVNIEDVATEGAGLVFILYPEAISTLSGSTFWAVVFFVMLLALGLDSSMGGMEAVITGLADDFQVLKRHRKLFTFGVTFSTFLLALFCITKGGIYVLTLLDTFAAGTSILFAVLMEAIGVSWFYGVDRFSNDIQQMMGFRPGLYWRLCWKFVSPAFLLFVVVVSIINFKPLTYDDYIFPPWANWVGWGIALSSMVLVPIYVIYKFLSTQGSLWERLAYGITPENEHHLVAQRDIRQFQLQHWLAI
# hNET, sequence (P23975 whole entry): as above
# T1 sequence (P31645 whole entry): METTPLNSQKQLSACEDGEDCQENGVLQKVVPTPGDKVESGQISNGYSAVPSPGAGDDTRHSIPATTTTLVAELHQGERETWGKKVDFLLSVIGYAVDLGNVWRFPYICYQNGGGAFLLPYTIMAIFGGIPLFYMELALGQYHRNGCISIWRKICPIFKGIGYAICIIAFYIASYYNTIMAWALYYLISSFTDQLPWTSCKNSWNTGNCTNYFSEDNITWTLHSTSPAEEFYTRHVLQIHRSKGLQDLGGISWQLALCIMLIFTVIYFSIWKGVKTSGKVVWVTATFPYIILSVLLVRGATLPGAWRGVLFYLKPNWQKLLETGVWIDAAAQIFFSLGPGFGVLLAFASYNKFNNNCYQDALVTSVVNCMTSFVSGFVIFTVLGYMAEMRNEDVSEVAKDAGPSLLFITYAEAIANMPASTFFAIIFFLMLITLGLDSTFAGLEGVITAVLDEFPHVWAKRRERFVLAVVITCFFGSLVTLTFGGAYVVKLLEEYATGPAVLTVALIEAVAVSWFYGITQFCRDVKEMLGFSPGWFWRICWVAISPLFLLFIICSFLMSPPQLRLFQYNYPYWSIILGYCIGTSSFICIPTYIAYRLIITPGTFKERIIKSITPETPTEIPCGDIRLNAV
# hSERT, sequence (P31645 whole entry): as above
SMILES,EC50 [1],EC50 [2],hNET binding (% I @ 1 μM) (hNET),hSERT binding (% I @ 1 μM) (hSERT),Activity Index [3],Duration [3],Onset [3],Restoration of normal TST in OVX-induced thermoregulatory dysfunction telemetry model [4],Reversal of tactile allodynia in the SNL neuropathic pain model [5]
"Cc1ccc(C23CNCC2C3)cc1 (racemic) [Racemic 1-(4-methylphenyl)-3-azabicyclo[3.1.0]hexane, 1-(4-methylphenyl)-3-azabicyclo[3.1.0]hexane]",265 nM and 426 nM,736 nM,71.8 % I,42.8 % I,-10.6 h,3.5 h,0.5 h,restores normal TST,–
"Clc1ccc(C23CNCC2C3)cc1Cl (racemic) [Racemic 1-(3,4-dichlorophenyl)-3-azabicyclo[3.1.0]hexane, 1-(3,4-dichlorophenyl)-3-azabicyclo[3.1.0]hexane]",–,–,–,–,–,–,–,–,significantly reverses tactile allodynia
"Cc1ccc(C23CNCC2C3)cc1 (single isomer, unassigned; (+)) [(+)-1-(4-methylphenyl)-3-azabicyclo[3.1.0]hexane]",–,–,–,–,-2.99 h,3.5 h,0.5 h,restores normal TST,–
